Measured values: ChEMBL document CHEMBL1142749, “P2-P3 conformationally constrained ketoamide-based inhibitors of cathepsin K” (Bioorg Med Chem Lett, 2005)
≈ marks a conversion by molar mass, not a printed value.

Assays:
[1] = The equilibrium solubility exhibited in a fasted state-simulated intestinal fluid at pH 6.8; format: ADME; details: human
[2] = molecular target: Procathepsin L (Homo sapiens, UniProt P07711); experiment: Inhibition of 5 µM Cbz-Phe-Arg-AMC bindign to human cathepsin L activity in fluorescence assay with 100 mM NaOAc
[3] = molecular target: T1, Cathepsin L2 (Homo sapiens, UniProt O60911); experiment: Inhibition of 2 µM Cbz-Phe-Arg-AMC binding to human cathepsin V activity in fluorescence assay with 100 mM NaOAc
T1 sequence (O60911 whole entry): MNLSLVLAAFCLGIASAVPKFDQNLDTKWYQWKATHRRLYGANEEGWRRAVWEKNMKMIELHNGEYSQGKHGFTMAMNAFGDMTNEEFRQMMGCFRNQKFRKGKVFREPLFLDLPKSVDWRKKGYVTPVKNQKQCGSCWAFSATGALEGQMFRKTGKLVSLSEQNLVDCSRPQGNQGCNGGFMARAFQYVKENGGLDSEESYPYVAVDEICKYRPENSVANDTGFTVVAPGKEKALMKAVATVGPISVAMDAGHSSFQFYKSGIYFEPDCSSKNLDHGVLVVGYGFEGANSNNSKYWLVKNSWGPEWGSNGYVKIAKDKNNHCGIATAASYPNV

[4] = molecular target: Cathepsin B (Homo sapiens, UniProt P07858); experiment: Inhibition of 10 µM Cbz-Phe-Arg-AMC binding to human cathepsin B activity in fluorescence assay with 100 mM NaOAc
[5] = molecular target: T2, Cathepsin K (Homo sapiens, UniProt P43235); experiment: Inhibition of 10 µM Cbz-Phe-Arg-AMC binding to human cathepsin K in fluorescence assay with 100 mM NaOAc
T2 sequence (P43235 whole entry): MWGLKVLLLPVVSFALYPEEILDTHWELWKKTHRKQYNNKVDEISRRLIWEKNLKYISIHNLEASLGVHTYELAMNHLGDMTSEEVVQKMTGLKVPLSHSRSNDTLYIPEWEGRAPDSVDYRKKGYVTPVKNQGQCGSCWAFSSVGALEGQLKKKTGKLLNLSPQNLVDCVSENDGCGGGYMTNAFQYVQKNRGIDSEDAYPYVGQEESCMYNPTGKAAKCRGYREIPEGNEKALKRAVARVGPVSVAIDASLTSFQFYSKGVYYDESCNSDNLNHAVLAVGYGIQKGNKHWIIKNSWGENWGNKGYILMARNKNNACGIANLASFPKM

[6] = molecular target: Cathepsin S (Homo sapiens, UniProt P25774); experiment: Inhibition of 10 µM Cbz-Val-Val-Arg-AMC binding to human cathepsin S in fluorescence assay with 100 mM NaOAc
[7] = Steady-state volume of distribution of compound was determined after i.v. administration; format: ADME, organism-based; details: rat, in vivo, iv; for Vd: read-out: VSS
[8] = Terminal half-life dosed as a solution in male Han Wistar rat administered i.v.; format: ADME, organism-based; details: in vivo, iv; for half-life: male, Han Wistar
[9] = Oral bioavailability (i.v. administration); format: ADME, organism-based; details: rat, in vivo
[10] = The total clearance after i.v. administration; format: ADME, organism-based; details: rat, in vivo, iv

Procathepsin L, sequence (P07711 whole entry): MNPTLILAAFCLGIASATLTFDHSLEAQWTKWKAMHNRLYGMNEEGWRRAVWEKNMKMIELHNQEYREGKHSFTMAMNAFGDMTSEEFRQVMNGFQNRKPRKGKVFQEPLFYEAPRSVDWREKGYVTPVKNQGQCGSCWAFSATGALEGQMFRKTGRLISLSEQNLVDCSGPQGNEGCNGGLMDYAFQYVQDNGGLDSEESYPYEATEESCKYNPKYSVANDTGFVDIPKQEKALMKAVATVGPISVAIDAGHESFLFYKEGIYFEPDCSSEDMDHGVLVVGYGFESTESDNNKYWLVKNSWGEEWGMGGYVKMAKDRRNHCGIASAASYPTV
Cathepsin S, sequence (P25774 whole entry): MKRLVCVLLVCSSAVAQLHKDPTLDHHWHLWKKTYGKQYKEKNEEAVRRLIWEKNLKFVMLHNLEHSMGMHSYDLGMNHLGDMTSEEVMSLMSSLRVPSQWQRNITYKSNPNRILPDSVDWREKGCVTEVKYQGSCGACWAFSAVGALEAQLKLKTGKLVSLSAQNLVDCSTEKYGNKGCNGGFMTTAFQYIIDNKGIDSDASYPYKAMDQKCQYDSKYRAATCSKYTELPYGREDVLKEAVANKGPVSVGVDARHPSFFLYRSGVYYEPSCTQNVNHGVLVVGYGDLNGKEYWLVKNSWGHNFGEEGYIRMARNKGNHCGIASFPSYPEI

solubility thermodynamic [1] [µg/mL] | IC50 [2] [µM] | IC50 [3] [µM] | IC50 [4] [µM] | IC50 [5] [µM] | IC50 [6] [µM] | Vd [7] [L/kg] | half-life [8] [h] | bioavailability [9] [%] | clearance [10] [mL/min/kg] | solubility thermodynamic ([1]; read-out: FS-SIF) [µg/mL] | VSS [7] [L/kg] | T1/2 [8] [h] | CL [10] [mL/min/kg] | SMILES
180 (≈ 312 µM) | 1000 | 36 | 870 | 0.0058 | 19 | 1.7 | 6.67 | 40 | 3.2 |  |  |  |  | CCCC[C@H](NC(=O)O[C@H](Cn1ccc(-c2ccc(C(F)(F)F)cc2)n1)C(C)(C)C)C(=O)C(=O)NCc1ccno1
 | 240 | 4.5 | 107 | 0.0081 | 3.7 | 1.8 | 3.5 | 34 | 41 | 380 (≈ 662 µM) |  |  |  | CCCC[C@H](NC(=O)O[C@H](Cn1ccc(-c2ccc(C(F)(F)F)cc2)n1)C(C)(C)C)C(=O)C(=O)Nc1ccccn1
 | 36 | 0.43 | 10 | 0.032 | 0.078 | 2.1 | 5.67 | 45 | 9.1 | 97 (≈ 172 µM) |  |  |  | CCCC[C@H](NC(=O)O[C@H](Cn1cc(-c2ccc(C(F)(F)F)cc2)cn1)C(C)(C)C)C(=O)C(=O)Nc1ccn[nH]1
 | 190 | 5 | 32 |  | 1.6 |  |  |  |  |  |  |  |  | CCCC[C@H](NC(=O)O[C@H](Cc1nnc(-c2ccc(C(F)(F)F)cc2)o1)C(C)(C)C)C(=O)C(=O)N[C@H](C)c1ccccc1
 | 15 | 1.3 | 6.2 | 0.00065 | 0.81 | 1.4 | 2.33 | 17 | 35 | 620 (≈ 1140 µM) |  |  |  | CCCC[C@H](NC(=O)OC(Cc1nnc(-c2ccc(F)cc2)o1)C(C)(C)C)C(=O)C(=O)N[C@H]1CCCNC1=O (stereo partly specified)
 | 10 | 1.6 | 12 |  | 0.75 |  |  |  |  |  |  |  |  | CCCC[C@H](NC(=O)O[C@H](Cc1nnc(-c2ccccc2)o1)C(C)(C)C)C(=O)C(=O)N[C@H](C)c1ccccc1
 | 17 | 2.8 | 56 | 0.0015 | 0.72 |  |  |  |  |  |  |  |  | CCCC[C@H](NC(=O)O[C@H](Cc1nnc(-c2ccccc2)o1)C(C)(C)CC)C(=O)C(=O)N[C@H](C)c1ccccc1
 | 8.7 | 0.17 | 20 | 0.072 | 0.21 |  |  | 9.6 |  | 110 (≈ 196 µM) | 0.32 | 1.52 | 0.11 | CCCC[C@H](NC(=O)O[C@H](Cn1ccc(-c2ccc(C(F)(F)F)cc2)n1)C(C)(C)C)C(=O)C(=O)Nc1ccn[nH]1
 | 1000 | 36 | 870 |  | 19 | 1.8 | 4.67 | 43 | 15 | 48 (≈ 82.8 µM) |  |  |  | CCCC[C@H](NC(=O)O[C@H](Cn1cnc(-c2ccc(C(F)(F)F)cc2)c1)C(C)(C)C)C(=O)C(=O)Nc1nccs1
 | 130 | 14 | 18 |  | 2.7 | 1.4 | 3.83 | 46 | 11 | 490 (≈ 908 µM) |  |  |  | CCCC[C@H](NC(=O)O[C@H](Cc1nnc(-c2ccc(F)cc2)o1)C(C)(C)C)C(=O)C(=O)NCc1cccnc1
 | 33 | 34 | 9.8 |  | 0.53 |  |  |  |  |  |  |  |  | CCCC[C@H](NC(=O)O[C@H](Cc1nnc(-c2ccc(F)cc2)o1)C(C)(C)C)C(=O)C(=O)N[C@H](C)c1ccccc1
 | 10 | 0.13 | 27 |  | 0.16 | 2.4 | 7.67 | 55 | 15 | 130 (≈ 231 µM) |  |  |  | CCCC[C@H](NC(=O)O[C@H](Cn1cnc(-c2ccc(C(F)(F)F)cc2)c1)C(C)(C)C)C(=O)C(=O)Nc1ccn[nH]1
 | 17 | 5.6 | 31 | 0.00083 | 3.7 |  |  |  |  |  |  |  |  | CCCC[C@H](NC(=O)O[C@H](Cc1nnc(-c2ccccc2)o1)C(C)C)C(=O)C(=O)N[C@H](C)c1ccccc1
 | 160 | 7.1 | 5.2 |  | 1.2 | 3.1 | 6.83 | 79 | 11 | 170 (≈ 291 µM) |  |  |  | CCCC[C@H](NC(=O)O[C@H](Cc1nnc(-c2ccc(C(F)(F)F)cc2)o1)C(C)(C)C)C(=O)C(=O)NN1CCOC1=O
 | 37 | 1.7 | 60 |  | 0.54 | 5 | 5.67 | 27 | 55 | 43 (≈ 74.1 µM) |  |  |  | CCCC[C@H](NC(=O)O[C@H](CN1CCN(c2ccc(C(F)(F)F)cc2)C1=O)C(C)(C)C)C(=O)C(=O)Nc1ccn[nH]1
 | 3800 | 230 | 3500 | 0.0049 | 110 | 3.6 | 2.5 | 88 | 33 | 58 (≈ 113 µM) |  |  |  | CCCC[C@H](NC(=O)O[C@H](Cc1nnc(-c2ccc(F)cc2)o1)C(C)(C)C)C(=O)C(=O)Nc1ccn[nH]1
 | 69 | 1.2 | 45 |  | 0.52 | 1.9 | 8.83 | 50 | 11 | 61 (≈ 108 µM) |  |  |  | CCCC[C@H](NC(=O)O[C@H](Cc1nnc(-c2ccc(C(F)(F)F)cc2)o1)C(C)(C)C)C(=O)C(=O)Nc1ccn[nH]1
